Assay results reported in patent publication US8304422B2, “Compositions and methods for inhibition of the JAK pathway” (Rigel Pharmaceuticals, Inc., priority 2007, dated 2012).

These molecules were tested on BaF3 V617F cells; UKE-1 (assay: Proliferation Assay (Cell Titer-Glo; Example 7)). Conditions: proliferation 72 hours, inhibit JAK2 activity, cell line (BaF3 V617F or UKE-1) not stated.
Assay type: cell-based
Outline: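 BaF3 V617F cells (RPMI, 10% FBS) and UKE-1 cells (Iscove's DMEM, 10% FBS, 10% equine serum, 1 uM hydrocortisone) were exposed to 3-fold serially diluted compound in duplicate for 72 hours at 37 °C. Viable cell number quantified by Cell Titer-Glo luminescence; IC50 reported.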

Molecule	IC50
CCNS(=O)(=O)NCc1ccc(Nc2nc(Nc3cc(C)c(OC)c(Cl)c3)ncc2Cl)cc1 [II-110, 5-Chloro-N2-(3-chloro-4-methoxy-5-methylphenyl)-N4-[(4-(ethylamino)sulfonylamino)methylphenyl]-2,4-pyrimidinediamine]	601 nM
Cc1cnc(Nc2ccc(N3CCN(C)CC3)nc2)nc1Nc1ccc(CNS(=O)(=O)NC2CC2)cc1 [II-173, N4-[4-((N-Cyclopropylamino)sulfonylamino)methylphenyl]-5-methyl-N2-[6-(4-methyl-1-piperazinyl)-3-pyridinyl]-2,4-pyrimidinediamine]	2340 nM
COc1cc(Nc2ncc(F)c(Nc3ccc(CNS(=O)(=O)C4CC4)cc3)n2)cc(C)c1OC [II-195, 5-Fluoro-N4-[4-(N-cyclopropylsulfonylamino)methylphenyl]-N2-[3,4-dimethoxy-5-methylphenyl]-2,4-pyrimidinediamine]	180 nM
CCNS(=O)(=O)NCc1ccc(Nc2nc(Nc3ccc(N4CCN(C)CC4)c(C)c3)ncc2Cl)c(C)c1 [II-145, 5-Chloro-N4-[2-methyl-4-(ethylaminosulfonylamino)methylphenyl]-N2-[3-methyl-4-(4-methyl-1-piperazinyl)phenyl]-2,4-pyrimidinediamine]	3980 nM
COc1cc(Nc2ncc(Cl)c(Nc3ccc(CNS(=O)(=O)C4CC4)cc3)n2)cc(Cl)c1OC [II-200, 5-Chloro-N4-[4-(N-cyclopropylsulfonylamino)methylphenyl]-N2-[3,4-dimethoxy-5-chlorophenyl]-2,4-pyrimidinediamine]	276 nM
CN1CCC(c2ccc(Nc3ncc(Cl)c(Nc4cccc(S(=O)(=O)NC(C)(C)C)c4)n3)cc2)CC1 [I-17, 5-Chloro-N4-[3-(N-tert-butylsulfonyl)phenyl]-N2-[4-(N-methylpiperidin-4-yl)phenyl]-2,4-pyrimidinediamine]	990 nM
Cc1cnc(Nc2c(C)cc(OC(C)C)cc2C)nc1Nc1ccc(CCNS(=O)(=O)C2CC2)cc1 [II-64]	548 nM
COc1c(C)cc(Nc2ncc(C)c(Nc3ccc(CNS(=O)(=O)N(C)C)cc3)n2)cc1Cl [II-101, 5-Methyl-N2-(3-chloro-4-methoxy-5-methylphenyl)-N4-[(4-(dimethylamino)sulfonylamino)methylphenyl]-2,4-pyrimidinediamine]	194 nM
CCCOc1c(C)cc(Nc2ncc(Cl)c(Nc3ccc(CNS(=O)(=O)NC4CC4)cc3C)n2)cc1C [II-178, 5-Chloro-N2-(3,5-dimethyl-4-propoxyphenyl)-N4-[2-methyl-4-((N-cyclopropylamino)sulfonylamino)methylphenyl]-2,4-pyrimidinediamine]	428 nM
COc1cc(Nc2ncc(C)c(Nc3ccc(CNS(=O)(=O)N(C)C)cc3)n2)cc(C)c1OC [II-100, 4-[(4-(Dimethylamino)sulfonylamino)methylphenyl]-N2-(3,4-dimethoxy-5-methylphenyl)-5-methyl-2,4-pyrimidinediamine]	179 nM
Cc1cnc(Nc2ccc(N3CCN(C)CC3)cc2)nc1Nc1ccc2c(c1)[C@H](NS(C)(=O)=O)CC2 [V-14, (1R)-5-Methyl-N2-[4-(4-methyl-1-piperazinyl)phenyl]-N4-[1-(methylsulfonyl)aminoindan-6-yl]-2,4-pyrimidinediamine]	2690 nM
CCNS(=O)(=O)NCc1cccc(Nc2nc(Nc3ccc(N4CCN(C)CC4)c(C)c3)ncc2C)c1 [II-136, N4-[3-((Ethylamino)sulfonylamino)methylphenyl]-5-methyl-N2-[3-methyl-4-(4-methyl-1-piperazinyl)phenyl]-2,4-pyrimidinediamine]	2140 nM
CCNS(=O)(=O)NCc1ccc(Nc2nc(Nc3ccc(N4CCN(CC)CC4)cc3)ncc2C)cc1 [II-125, N4-[(4-(ethylamino)sulfonylamino)methylphenyl]-N2-[4-(4-ethyl-1-piperazinyl)phenyl]-5-methyl-2,4-pyrimidinediamine]	512 nM
CCNS(=O)(=O)NCc1ccc(Nc2nc(Nc3ccc(N4CCC(F)(F)CC4)cc3)ncc2C)cc1 [II-123, N2-[4-(4,4-Difluoro-1-piperidinyl)phenyl]-N4-[(4-(ethylamino)sulfonylamino)methylphenyl]-5-methyl-2,4-pyrimidinediamine]	373 nM
CCNS(=O)(=O)NCc1ccc(Nc2nc(Nc3cc(C)c(OCC)c(C)c3)ncc2Cl)c(C)c1 [II-143, 5-Chloro-N2-(3,5-dimethyl-4-ethoxyphenyl)-N4-[2-methyl-4-(ethylaminosulfonylamino)methylphenyl]-2,4-pyrimidinediamine]	252 nM
CN1CCC(c2ccc(Nc3ncc(Cl)c(Nc4ccc(CNS(=O)(=O)C5CC5)cc4)n3)cc2)CC1 [II-187, 5-Chloro-N4-[4-(N-cyclopropylsulfonylaminomethyl)phenyl]-N2-[4-(N-methylpiperidin-4-yl)phenyl]-2,4-pyrimidinediamine]	293 nM
Cc1cnc(Nc2ccc(N3CCN(C)CC3)cc2)nc1Nc1cccc(S(=O)(=O)N(C)C)c1 [I-14, N4-[(3-(1,1-Dimethylamino)sulfonyl)phenyl]-5-methyl-N2-[4-(4-methyl-1-piperazinyl)phenyl]-2,4-pyrimidinediamine]	225 nM

Molecule	IC50
CCNS(=O)(=O)NCc1cccc(Nc2nc(Nc3ccc(N4CCN(C)CC4)c(C)c3)ncc2F)c1 [II-139, N4-[3-((Ethylamino)sulfonylamino)methylphenyl]-5-fluoro-N2-[3-methyl-4-(4-methyl-1-piperazinyl)phenyl]-2,4-pyrimidinediamine]	4330 nM
COc1cc(Nc2ncc(Cl)c(Nc3ccc(CNS(=O)(=O)N(C)C)cc3)n2)cc(C)c1OC [II-91, 5-Chloro-N2-(3,4-dimethoxy-5-methylphenyl)-N4-[(4-(dimethylamino)sulfonylamino)methylphenyl]-2,4-pyrimidinediamine]	142 nM
CCS(=O)(=O)N1CCc2c(cccc2Nc2nc(Nc3ccc(N4CCN(C)CC4)cc3)ncc2Cl)C1 [VI-1, 5-Chloro-N2-[4-(4-methyl-1-piperazinyl)phenyl]-N4-[1,2,3,4-tetrahydro-2-(ethylsulfonyl)-5-isoquinolinyl]-2,4-pyrimidinediamine]	473 nM
Cc1cnc(Nc2ccc(N3CCN(C4CC5CCC4C5)CC3)c(F)c2)nc1Nc1ccc(CNS(=O)(=O)C2CC2)cc1 (stereo not shown) [II-78, N-(4-(2-(4-(4-(bicyclo[2.2.1]heptan-2-yl)piperazin-1-yl)-3-fluorophenylamino)-5-methylpyrimidin-4-ylamino)benzyl)cyclopropanesulfonamide]	371 nM
Cc1cnc(Nc2ccc(N3CCN(C)CC3)cc2)nc1Nc1ccc2c(c1)C(NS(=O)(=O)C1CC1)CC2 (racemic) [V-4, (+/−)-N4-[1-(Cyclopropylsulfonylamino)indan-6-yl]-5-methyl-N2-[4-(4-methyl-1-piperazinyl)phenyl]-2,4-pyrimidinediamine]	686 nM
COc1c(C)cc(Nc2ncc(C)c(Nc3ccc(CNS(=O)(=O)C4CC4)cc3)n2)cc1C [II-201, 5-Methyl-N4-[4-(N-cyclopropylsulfonylamino)methylphenyl]-N2-[3,5-dimethyl-4-methoxyphenyl]-2,4-pyrimidinediamine]	174 nM
5-Chloro-N4-[4-(N-cyclopropylsulfonylamino)methylphenyl]-N2-[4-(N-ethylpiperizin-4-yl)phenyl]-2,4-pyrimidinediamine [II-205]	135 nM
COc1c(Cl)cc(Nc2ncc(C)c(Nc3ccc(CNS(=O)(=O)N(C)C)cc3)n2)cc1Cl [II-102, 5-methyl-N2-[3,5-dichloro-4-methoxyphenyl]-N4-[(4-(dimethylamino)sulfonylamino)methylphenyl]-2,4-pyrimidinediamine]	1170 nM
Cc1cc(Nc2ncc(Cl)c(Nc3ccc(CNS(=O)(=O)C4CC4)cc3)n2)cc(C)c1OC(C)C [II-220, 5-Chloro-N4-[4-(N-cyclopropylsulfonylamino)methylphenyl]-N2-[3,5-dimethyl-4-(2-propoxy)phenyl]-2,4-pyrimidinediamine]	121 nM
Cc1cnc(Nc2ccc(N3CCN(C)CC3)cc2)nc1Nc1ccc(CNS(=O)(=O)NC2CC2)cc1 [II-171, N4-[4-((N-Cyclopropylamino)sulfonylamino)methylphenyl]-5-methyl-N2-[4-(4-methyl-1-piperazinyl)phenyl]-2,4-pyrimidinediamine]	735 nM
Cc1cnc(Nc2ccc(C3CCN(C)CC3)cc2)nc1Nc1ccc(CNS(=O)(=O)N(C)C)cc1 [II-106, N4-[(4-(Dimethylamino)sulfonylamino)methylphenyl]-5-methyl-N2-[4-(1-methyl-4-piperidinyl)pheny]-2,4-pyrimidinediamine]	383 nM
Cc1cnc(Nc2ccc(N3CCN(S(C)(=O)=O)CC3)cc2)nc1Nc1ccc(CNS(=O)(=O)C2CC2)cc1 [II-206]	1560 nM
O=S(=O)(NCc1ccc(Nc2nc(Nc3ccc(N4CCN(C5CC6CCC5C6)CC4)cc3)ncc2Cl)cc1)C1CC1 (stereo not shown) [II-61, N-(4-(2-(4-(4-(bicyclo[2.2.1]heptan-2-yl)piperazin-1-yl)phenylamino)-5-chloropyrimidin-4-ylamino)benzyl)cyclopropanesulfonamide]	5970 nM
Cc1cnc(Nc2ccc(N3CCN(S(C)(=O)=O)CC3)cc2C(F)(F)F)nc1Nc1ccc(CCNS(=O)(=O)C2CC2)cc1 [II-72]	18300 nM
Cc1cnc(Nc2ccc(N3CCN(C)CC3)cc2)nc1Nc1ccc(CCNS(=O)(=O)C2CC2)cc1 [II-67]	717 nM
CCc1cnc(Nc2ccc(N3CCN(CC)CC3)cc2)nc1Nc1ccc(CNS(=O)(=O)C2CC2)cc1 [II-89, N4-[4-(N-Cyclopropylsulfonylamino)methylphenyl]-5-ethyl-N2-[4-(4-ethyl-1-piperazinyl)phenyl]-2,4-pyrimidinediamine]	674 nM
Cc1cnc(Nc2cncc(C)c2N2CCN(C)CC2)nc1Nc1ccc(CNS(=O)(=O)C2CC2)cc1 [II-224, 5-Methyl-N4-[4-(N-cyclopropylsulfonylamino)methylphenyl]-N2-[5-methyl-4-(N-methylpiperizin-4-yl)pyridin-3-yl]-2,4-pyrimidinediamine]	848 nM
